# Patent publication US11992467B2, “Promotion of lymphatic function” (Universitaet Basel, priority 2014, dated 2024)
# Tests used:
# LEC = test: Sprouting assay (LEC-coated microcarriers in collagen); type: cell-based, human; conditions: 24 hours
# Protocol: To investigate cell sprouting, cytodex microcarriers were coated with LECs (Schulz et al. (2012) Phenotype-based high-content chemical library screening identifies statins as inhibitors of in vivo lymphangiogenesis. Proc Natl Acad Sci USA 109, E2665-2674). Then, the microcarriers were embedded in a collagen solution and media containing 0.1% DMSO, 20 ng/ml VEGF-A, or different concentrations of the IG extract, its subfractions or iridals were added for 24 hours. The induced sprouts were imaged at 4× magnification (Molecular Devices ImageXpress Micro HCS microscope MD2, Photometrics CoolSNAP HQ camera, Photometrics, Tucson, AZ, USA). Image analysis was performed using ImageJ64 and the number of sprouts per microcarrier was counted and plotted. Three replicates per condition were performed.
# [1] = tested on: cytochrome P450 1A isoenzyme; conditions: cited from earlier work
# lymphangiogenesis = conditions: experimental mouse lymphedema models; cited from earlier work
# A2780 = conditions: cited from earlier work
# K562 = conditions: cited from earlier work
# Plasmodium = conditions: cited from earlier work
# fungi = conditions: cited from earlier work
# [2] = tested on: guinea pig mesenteric lymphatic vessels; test: Ex vivo lymphatic contractility assay
# From the text: Guinea pigs (7-15 days of age) were killed by decapitation during deep anaesthesia induced by inhalation of isoflurane. The small intestine with its attached mesentery was rapidly dissected and placed in a physiological saline solution (PSS) of the following composition (mM): CaCl2, 2.5; KCl, 5; MgCl2, 2; NaCl, 120; NaHCO3, 25; NaH2PO4, 1; glucose, 11. The pH was maintained at 7.4 by constant bubbling with 95% O2/5% CO2. […]
# The organ bath was then mounted on the stage of an inverted microscope and continuously superfused at a flow rate of 3 ml/min with PSS heated to 36° C. […] A custom-written MatLab program detected vessel diameter changes on the video image and recorded them as a function of time, allowing measurement of frequency and amplitude of contractions. Decreases in vessel diameter greater than 50% of the diastolic diameter were counted as contractions. Preparations were allowed a 30 min equilibration period prior to drug application during which pumping was assessed. […] A 5 min control period of contractile activity was recorded prior to a 1 to 5 min application of iripallidal and effects on vessel contraction frequency were assessed during the ten subsequent minutes.
compound,measurement,setting,value
CC(C)=CCC/C(C)=C/CC(O)/C(C)=C/CC[C@@]1(C)[C@H](CCCO)/C(=C(\C)C=O)CC[C@]1(C)O (some centres unmarked) [Iridobelamal A],Minimal effective concentration in sprouting assay,LEC,3 µM
C=C1CC[C@H](C)C(C)(C)[C@@H]1CC/C(C)=C/CC[C@@]1(C)[C@H](CCCO)/C(=C(/C)C=O)CC[C@]1(C)O [γ-irigermanal],Minimal effective concentration in sprouting assay,LEC,0.01 µM
iriflogenin,inhibition of cytochrome P450 1A isoenzyme,[1],potent inhibitors
COc1cc(-c2coc3cc(O)c(OC)c(O)c3c2=O)cc(O)c1OC [irigenin],inhibition of cytochrome P450 1A isoenzyme,[1],potent inhibitors
CC1=C(/C=C/C(C)=C\C=C\C(C)=C\C(=O)O)C(C)(C)CCC1 [9-cis retinoic acid],lymphangiogenesis,lymphangiogenesis,promote lymphangiogenesis
Irisgermanical C,Minimal effective concentration in sprouting assay,LEC,1 µM
Irigermanone,Minimal effective concentration in sprouting assay,LEC,10 µM
CC(C)=CCC/C(C)=C/CC/C(C)=C/CC[C@@]1(C)[C@H](CCCO)/C(=C(/C)C=O)CC[C@]1(C)O [Iridal],activity on human tumor cell line,A2780,interesting activity on two human tumor cell lines
same,activity on human tumor cell line,K562,interesting activity on two human tumor cell lines
same,antiplasmodial activity,Plasmodium,antiplasmodial activity
same,antifungal activity,fungi,no antifungal activity
C=C1CC[C@H](C)C(C)(C)[C@@H]1/C=C/C(C)=C/CC[C@@]1(CO)[C@H](CCCO)/C(=C(/C)C=O)CC[C@]1(C)O [Iriflorental],Minimal effective concentration in sprouting assay,LEC,0.03 µM
CC1=CC[C@H](C)C(C)(C)[C@@H]1/C=C/C(C)=C/CC[C@@]1(CO)[C@H](CCCO)/C(=C(/C)C=O)CC[C@]1(C)O [Iripallidal],Minimal effective concentration in sprouting assay,LEC,0.03 µM
same,"vessels with small, but significant increase in contraction frequency",[2]; 10 μM,5 out of 6
same,"vessels with small, but significant increase in contraction frequency",[2]; 30 μM (data not shown),4 out of 4
Cis isomer of α-dehydroirigermanal,Minimal effective concentration in sprouting assay,LEC,0.01 µM
O=c1c(-c2ccc(O)cc2)coc2cc3c(c(O)c12)OCO3 [irilone],inhibition of cytochrome P450 1A isoenzyme,[1],potent inhibitors
